Test results from the OPERA property sets (Mansouri et al. 2018).

Structure (SMILES) | logP
Cc1c(-c2ccccc2)oc2ccccc2c1=O | 3.92
COc1nnccc1N(C)C | 0.9
CC(C)=NO | 0.12
O=c1[nH]cc(I)c(=O)[nH]1 | 0.04
CNc1cccc2ccccc12 | 2.88
CC(=O)Nc1ccccc1NC(C)=O | -0.03
O=C1c2ccccc2C(=O)C1(O)O | 0.67
O=NN(CCCl)C(=O)NC1CCC(NC(=O)N(CCCl)N=O)CC1 (stereo unspecified) | 2.74
CCCC1CNC(C(=O)NC(C(C)O)C2OC(SC)C(O)C(O)C2O)C1 (stereo unspecified) | 0.04
CN(C)N=CCCc1ccccc1 | 2.05
Cc1c2ccncc2cc2c1[nH]c1ccccc12 | 4.06
O=S(Cc1ccccn1)c1nc2ccccc2[nH]1 (stereo unspecified) | 1.33
CCC1(c2ccccc2)NC(=O)NC1=O (stereo unspecified) | 1.53
CCOC(=O)CC(=O)C=Cc1cccc(C)c1 | 2.8
CCOc1ccccc1NC(C)=O | 1.49
C[N+](C)(C)Cc1cccc(C(F)(F)F)c1.[Br-] | -1.35
CCCC1CC(C(=O)NC(C(C)O)C2OC(SC)C(O)C(O)C2O)N(CC)C1 (stereo unspecified) | 1.02
O=C(O)c1ccco1 | 0.64
O=[N+]([O-])c1ccc(OCCn2ccnn2)cc1 | 1.19
COc1ccc(-c2ncc[nH]2)c(OC)c1 | 1.72
O=C(Nc1ccc(Cl)c(Cl)c1)c1ccccc1 | 4.42
CCC(C)N=C=S (stereo unspecified) | 2.81
COc1cc(C)c2c(c1OC)-c1ccc(SC)c(=O)cc1C(NC1OCC(O)C(O)C1O)CC2 (stereo unspecified) | 1.4
O=C(O)c1ccc[nH]1 | 0.85

Structure (SMILES) | logP
CC(=O)NNC(=O)c1ccccc1N(C)C | 1.49
CCCc1ccc2c(c1)C(=O)c1ccc(NC(C)=O)cc1S2(=O)=O | 3.51
CC(=O)NC1=CC(=O)N(c2ccc(Cl)cc2)C1=O | 0.75
CCC(=O)OCC(=O)C1(OC(=O)CC)C(C)CC2C3CC(F)C4=CC(=O)C(Cl)=CC4(C)C3(F)C(O)CC21C (stereo unspecified) | 4.22
FC(F)(F)CN(CC(F)(F)F)c1ccc(Br)cc1 | 4.7
O=S(=O)(NO)c1ccccc1 | 0.48
NC1=NS(=O)(=O)c2ccc(Cl)cc2N1 | 0.91
c1ccc(-c2nnco2)cc1 | 1.31
CSc1ccc(C=NN=C(N)NO)cc1 | 0.32
COC(=O)c1cc2nc(S(=O)Cc3ncccc3C)[nH]c2cc1C (stereo unspecified) | 2.4
N#CCCN(CCC#N)/N=N/c1nc[nH]c1C(N)=O | -0.76
CCOC(=O)CNCCCCCSc1c2[nH]cnc2nc[n+]1[O-] | 0.87
O=C1C=CC(=NCl)C=C1 | 1.26
CC(Cl)C(=O)N(CC(=O)Nc1ccccc1)c1ccccc1 (stereo unspecified) | 3.02
CCC1OC(=O)C(C)C(OC2CC(C)(OC)C(O)C(C)O2)C(C)C(OC2OC(C)CC(N(C)C)C2O)C(C)(O)CC(C)C(=O)C(C)C(OC(C)=O)C1C (stereo unspecified) | 3.32
COc1cc(C=NO)ccc1OCCOC(=O)c1cccc(Cl)c1 | 3.94
COC1OC(CO)C(O)C(NC(=O)N(C)N=O)C1O (stereo unspecified) | -0.82
CN(Cc1ccccc1)N=Nc1[nH]cnc1C(N)=O | 1.54
S=C(Nc1ccccc1)c1ccccc1 | 3.03
CC(C)S(=O)(=O)n1c(N)nc2ccc(/C(=N/O)c3ccccc3)cc21 | 3.1
COc1cccc(OC)c1OC | 1.53
Cn1c(SCC2=C(C(=O)O)N3C(=O)C(NC(=O)Cc4cccs4)C3SC2)nnc(O)c1=O (stereo unspecified) | -0.52
CC(=O)Nc1ccc2nccnc2c1 | 1
CC1CCCN(N=O)C1=O (stereo unspecified) | -0.66

Structure (SMILES) | logP
CC1(C)OC2CC3C4CC(F)C5=CC(=O)C(Cl)=CC5(C)C4(F)C(O)CC3(C)C2(C(=O)CO)O1 (stereo unspecified) | 2.99
CC(=O)Nc1cccc(C#N)c1 | 1.2
O=C1NC(c2cccc3ccccc23)Nc2ccccc21 (stereo unspecified) | 2.96
Cc1cccc(C)c1NC(=O)c1cccc(CN2CCCC2)c1 | 3.1
CC(=O)Nc1ccc2c(c1)S(=O)(=O)c1ccccc1C2=O | 2.35
CN(C)/N=N/c1ccccc1C(=O)NCC#N | 1.79
CC(=O)Nc1cccc(OCc2cccc(N3C(N)=NC(N)=NC3(C)C)c2)c1 | 1.15
Cc1c(N2CCOCC2)c(=O)n(-c2ccccc2)c(=O)n1C | 0.69
CC1(O)OC(=O)c2ccccc21 (stereo unspecified) | 0.81
COc1cc(C=NO)ccc1OCCOC(=O)COc1ccccc1 | 2.1
Cc1oc2cc(OCC#N)ccc2c(=O)c1C | 1.96
COc1ccc(-c2nc3ncccc3[nH]2)c(OC)c1 | 2.57
CN(C)c1ccc(C(=C2C=CC(=[N+](C)C)C=C2)c2ccc(N(C)C)cc2)cc1.[Cl-] | 0.96
O=C(Nc1ccc(Cl)c(Cl)c1)C1CCCCC1 | 4.72
O=S1(=O)NC(C2=CCCC2)=Nc2ccccc21 | 1.69
CCC(CC)C1=Nc2ccccc2S(=O)(=O)N1 | 1.88
CCC(=O)OCCOc1ccc(C=NO)cc1OC | 1.52
O=C(C=Cc1ccc2c(c1)OCO2)N1CCCCC1 | 2.82
CC1(C)OCCO1 | 0.46
O=NN1CCCCC1=O | -1.05
C=CCn1c(=O)c(N(C)C)c(C)n(-c2ccccc2)c1=O | 1.98
COc1ccc(Cc2cnc(N)nc2N)c(OC)c1OC | 1.52
COc1ccccc1C=CC(=O)OCCOc1ccc(C=O)cc1OC | 3.65
